No end group written: not given here.
Test system: CYP1A1
Assay: CYP1A1 gene expression by RT-PCR, HaCaT cells treated with pollutants
Assay type: cell-based, human
Method: In order to confirm an effect of inhibiting inflow of pollutants into the cells via another method, the cells were treated with TCDD, PM, and CSE, and expression levels of CYP1A1 and COX-2 were confirmed. When the activity of AhR is promoted by the pollutants such as TCDD, the AhR acts as a transcription factor and increases expressions of CYP1A1 and COX-2, and thus a degree of the inflow of the pollutants into the cells and whether the AhR is activated or not may be confirmed by measuring expression levels of CYP1A1 and COX-2 genes. TCDD, PM, and CSE were each used after mixing it with the peptide of the present invention and pre-reacting the mixture on a serum-free media for about 1 hour.
In order to confirm the results of the cells treated with TCDD, first, 78 passages of HaCaT cells were seeded in a 6-well plate at a cell density of 3×10^5/well and cultured for about 16 hours, and then, the culture solution was replaced with a serum-free media, and the resultant was treated with the pre-reacted mixture of TCDD and the peptide for about 2 hours. The treatment included TCDD at a concentration of about 0.1 μM and the peptide at concentrations of about 10 μM, about 50 μM, and about 100 μM, respectively. The negative control was not treated with the peptide but only treated with TCDD, and the positive control was treated with CH223191 at a concentration of about 10 μM and TCDD. The cells were reacted with the mixture for about 2 hours, and RNA was isolated from the resultant. After removing the culture solution, the plate on which the cells were cultured was treated with TRIzol (available from Thermo Fisher Scientific, USA), and a sample including RNA was obtained using a scraper. Then, the sample was treated with chloroform and centrifuged to obtain a supernatant. The supernatant was treated with isopropanol, centrifuged again, and RNA pellets at the bottom were confirmed. Next, the resultant was treated with 70% of ethanol to wash the pellets, and the pellets were sufficiently dried to isolate RNA. […]

SYSGVLFFLK [SEQ ID NO: 1, SYSGVLFFLK]
expression level of CYP1A1 (CSE about 2%, peptide about 10, 50, 100 μM, about 2 hours (FIG. 2C)): decreased as a concentration of the peptide increased
expression level of CYP1A1 (PM about 25 μg/cm^2, peptide about 10, 50, 100 μM, about 2 hours (FIG. 2B)): decreased as a concentration of the peptide increased
expression level of CYP1A1 (TCDD about 0.1 μM, peptide about 10, 50, 100 μM, about 2 hours (FIG. 2A)): decreased as a concentration of the peptide increased
